Source: patent US20050095240A1, “NaCT as a target for lifespan expansion and weight reduction” (Medical College of Georgia Research, priority 2002, published 2005)

Assays:
[1] = molecular target: T1, ceNaCT (Caenorhabditis elegans, UniProt P32739, I91S/L182M); test: ceNaCT in X. laevis oocytes: uptake and two-electrode voltage clamp; format: cell-based
T1 sequence (P32739 1-551 I91S/L182M): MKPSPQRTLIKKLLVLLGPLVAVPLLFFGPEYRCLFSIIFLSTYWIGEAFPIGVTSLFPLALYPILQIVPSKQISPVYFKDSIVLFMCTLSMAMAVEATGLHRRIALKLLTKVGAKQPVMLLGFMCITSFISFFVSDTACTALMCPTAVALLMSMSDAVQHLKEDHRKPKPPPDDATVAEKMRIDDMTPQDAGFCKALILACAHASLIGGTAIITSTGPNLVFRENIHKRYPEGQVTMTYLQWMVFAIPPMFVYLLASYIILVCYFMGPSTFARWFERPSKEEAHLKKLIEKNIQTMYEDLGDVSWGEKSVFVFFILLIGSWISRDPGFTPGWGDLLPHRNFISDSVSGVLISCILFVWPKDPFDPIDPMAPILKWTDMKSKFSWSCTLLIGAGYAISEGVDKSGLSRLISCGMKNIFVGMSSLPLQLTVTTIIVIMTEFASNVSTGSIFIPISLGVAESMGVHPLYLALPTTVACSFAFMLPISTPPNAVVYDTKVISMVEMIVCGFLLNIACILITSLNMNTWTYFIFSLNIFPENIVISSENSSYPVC
Source text: Electrophysiological studies of ceNaCT transport activity. Initially, ceNaCT cRNA prepared from the pSPORT-ceNaCT cDNA construct was used for functional expression of the transporter in X. laevis oocytes. These initial attempts were unsuccessful. Therefore, a X. laevis oocyte expression vector was used. The coding sequence of ceNaCT cDNA was amplified by PCR using the following primers: 5′-[…]-3′ (SEQ ID NO:23) (forward primer) and 5′-[…]-3′ (SEQ ID NO:24) (reverse primer). The forward primer contained the start codon and also an Xma I site introduced at the 5′-end for the purpose of subcloning. The reverse primer contained the termination codon and also a BamH I site at the 5′end for the purpose of subcloning. The PCR-derived ceNaCT coding fragment was then inserted into the Xma I/BamH I site in the oocyte expression vector pGHl9.

[2] = molecular target: T2, mouse NaCT (Mus musculus, UniProt Q67BT3); test: Mouse NaCT in X. laevis oocytes, two-microelectrode voltage clamp; format: cell-based; conditions: 0.5 mM citrate; three oocytes; −50 mV
T2 sequence (Q67BT3 1-572): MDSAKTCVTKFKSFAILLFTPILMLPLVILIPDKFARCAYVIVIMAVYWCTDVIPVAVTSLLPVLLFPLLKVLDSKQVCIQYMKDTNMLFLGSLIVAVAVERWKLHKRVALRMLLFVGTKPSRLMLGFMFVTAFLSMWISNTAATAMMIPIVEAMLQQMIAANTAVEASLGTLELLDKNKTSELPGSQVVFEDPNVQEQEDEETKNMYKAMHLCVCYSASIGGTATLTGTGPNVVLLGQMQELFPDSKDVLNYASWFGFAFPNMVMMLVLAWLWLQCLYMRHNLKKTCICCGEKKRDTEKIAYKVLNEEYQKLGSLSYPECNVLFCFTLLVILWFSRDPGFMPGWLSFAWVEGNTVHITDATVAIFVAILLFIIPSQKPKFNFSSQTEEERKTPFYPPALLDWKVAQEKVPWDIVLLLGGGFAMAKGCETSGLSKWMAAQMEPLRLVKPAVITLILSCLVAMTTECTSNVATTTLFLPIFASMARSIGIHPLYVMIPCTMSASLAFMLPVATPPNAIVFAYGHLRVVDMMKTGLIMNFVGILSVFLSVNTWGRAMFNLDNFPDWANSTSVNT
Protocol: Functional expression of mouse and rat NaCTs in Xenopus laevis oocytes. Capped cRNA from the cloned mouse NaCT cDNA was synthesized using the mMESSAGE mMACHINE kit (Ambion Inc., Austin, Tex., USA). In some experiments, rat NaCT of Example 2 was used for functional expression. […] On the following day, oocytes were injected with 50 ng cRNA. Water-injected oocytes served as controls. The oocytes were used for electrophysiological studies 4-6 days after cRNA injection. Electrophysiological studies were performed by the two-microelectrode voltage-clamp method (Hatanaka et al., J. Clin. Invest. (2001);107: 1035-1043 and Nakanishi et al., J. Physiol. (2001);532: 297-304). […] The membrane potential was clamped at −50 mV. […] The oocytes were perifused with 50 μM [^14C]-citrate or 50 μM succinate (unlabeled plus radiolabeled succinate) and inward currents were monitored over a period of 10 min. […] The area within the curve describing the relationship between the time and inward current was integrated to calculate the charge transferred into the oocyte during incubation with citrate or succinate. The values for substrate transport and charge transfer were used to determine the charge-to-substrate ratio.

[3] = molecular target: Phe→Leu mutant of human NaCT (Homo sapiens, UniProt Q86YT5, F500L); test: Citrate uptake via Phe→Leu mutant of human NaCT in HRPE cells; format: cell-based
[4] = molecular target: drIndy (Drosophila melanogaster, UniProt Q9VVT2); test: cell-based
Chain of drIndy (Q9VVT2 19-590): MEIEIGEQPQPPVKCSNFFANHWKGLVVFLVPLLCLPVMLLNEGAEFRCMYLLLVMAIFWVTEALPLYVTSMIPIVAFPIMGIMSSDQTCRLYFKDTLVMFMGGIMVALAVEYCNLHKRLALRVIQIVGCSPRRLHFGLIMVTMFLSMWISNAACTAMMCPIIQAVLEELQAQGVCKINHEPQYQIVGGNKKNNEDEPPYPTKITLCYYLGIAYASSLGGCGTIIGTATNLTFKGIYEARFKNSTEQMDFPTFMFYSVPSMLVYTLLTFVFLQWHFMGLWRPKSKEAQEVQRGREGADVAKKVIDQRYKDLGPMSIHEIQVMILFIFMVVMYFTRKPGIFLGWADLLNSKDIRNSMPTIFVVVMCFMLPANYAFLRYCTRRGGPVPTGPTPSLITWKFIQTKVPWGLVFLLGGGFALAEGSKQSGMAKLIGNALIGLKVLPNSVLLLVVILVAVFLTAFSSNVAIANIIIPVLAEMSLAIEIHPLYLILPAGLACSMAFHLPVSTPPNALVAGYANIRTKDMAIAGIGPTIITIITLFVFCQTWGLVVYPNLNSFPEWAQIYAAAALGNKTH

Chain of Phe→Leu mutant of human NaCT (Q86YT5 whole entry F500L): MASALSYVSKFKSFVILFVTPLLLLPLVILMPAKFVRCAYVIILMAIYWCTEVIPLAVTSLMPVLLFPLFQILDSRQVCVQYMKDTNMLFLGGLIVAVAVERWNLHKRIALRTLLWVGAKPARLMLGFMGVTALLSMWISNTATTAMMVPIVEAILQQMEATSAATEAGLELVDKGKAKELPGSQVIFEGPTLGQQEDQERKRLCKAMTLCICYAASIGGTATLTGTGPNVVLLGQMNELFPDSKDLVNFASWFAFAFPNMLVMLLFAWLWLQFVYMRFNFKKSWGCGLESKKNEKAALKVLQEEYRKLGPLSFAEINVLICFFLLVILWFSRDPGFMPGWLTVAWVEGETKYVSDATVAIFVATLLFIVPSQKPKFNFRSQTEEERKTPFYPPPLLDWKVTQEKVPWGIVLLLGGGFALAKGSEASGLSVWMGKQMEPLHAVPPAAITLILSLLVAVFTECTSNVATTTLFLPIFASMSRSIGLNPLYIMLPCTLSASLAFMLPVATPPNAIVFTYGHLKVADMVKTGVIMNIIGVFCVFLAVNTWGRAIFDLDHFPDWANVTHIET

O=C(O)CC(O)(CC(=O)O)C(=O)O [Citrate]
Uptake in cRNA-injected vs water-injected oocytes ([1]; citrate 40 μM, pH 6.5): about 45 fold
Uptake of [^14C]citrate in ceNaCT cRNA-injected oocytes ([1]; citrate 40 μM, pH 6.5): 12.9±0.8 pmol/oocyte/15 min
pH-dependent stimulation, pH 7.5 to 6.5 ([1]; citrate 250 μM): about 1.25 fold
Maximal current (Imax) ([1]; testing membrane potential −50 mV): 12.3±0.6 nA
K0.5, concentration of citrate for half-maximal current ([1]; testing membrane potential −70 mV, pH 6.5): 34 ± 8 µM
Maximal current (Imax) ([1]; testing membrane potential −150 mV): 61.1±2.6 nA
Citrate-induced inward current [2]: 30±7 nA
Increase in substrate affinity of mutant vs wild type [3]: 7 fold
Kt for citrate, Phe→Leu mutant [3]: 78 ± 8 µM
Ki [4]: 105 ± 35 µM
